Experimental data as given in patent publication US4409210A, “Antibiotic compound” (priority 1982, dated 1983).
In brackets after ≈: the same amount, converted by molar mass. *1 amine or outer side, *2 acyl side, *3 side chain or, on linkers, in order; H or OH if unused. Where a SMILES comes first, the peptide text is derived from it. Bridges are numbered along the chain shown (N, C = ends). [ ]: non-standard residue; d: D form. ξ: configuration not given here. X2 = CCCCCCCCCCCC(CC(=O)[*:1])O[*:2]; ξAsp(3ξ-OH) = NC(C(=O)O)C(O)C(=O)O; X1 = O=C(C1C(O)CCN1[*:1])[*:2]

Assays:
Assay type in all cases: cell-based
[1] = tested on: Bacillus anthracis IID-115; test: microbe, parasite or virus in culture
[2] = tested on: Staphylococcus aureus #193; test: MIC, serial two-fold dilution method (aerobic); conditions: Staphylococcus aureus #193, Mueller-Hinton agar, inoculum 10^4
Proteus vulgaris A9436 = test: MIC, serial two-fold dilution method (aerobic); conditions: Proteus vulgaris A9436, Mueller-Hinton agar, inoculum 10^4
[3] = tested on: Pseudomonas aeruginosa D-113; test: MIC, serial two-fold dilution method (aerobic); conditions: Pseudomonas aeruginosa D-113, Mueller-Hinton agar, inoculum 10^4
S. aureus 209P = test: Antibiotic sensitivity, paper disc-agar diffusion method; set-up: key: S (sensitive); R (resistant); I (intermediate); conditions: nutrient agar, 2 day's incubation at 28° C., Difco discs, amount/disc per antibiotic
[4] = tested on: Peptostreptococcus anaerobius A21905; test: MIC, serial two-fold dilution method (anaerobic); conditions: Peptostreptococcus anaerobius A21905, GAM agar medium, inoculum 10^7-10^8
[5] = tested on: Clostridium perfringens A9635; test: microbe, parasite or virus in culture
[6] = tested on: Bacteroides fragilis A22533; test: MIC, serial two-fold dilution method (anaerobic); conditions: Bacteroides fragilis A22533, GAM agar medium, inoculum 10^7-10^8
[7] = tested on: Bacteroides fragilis CUH-24; test: MIC, serial two-fold dilution method (anaerobic); conditions: Bacteroides fragilis CUH-24, GAM agar medium, inoculum 10^7-10^8
[8] = tested on: Propionibacterium acnes A21953; test: MIC, serial two-fold dilution method (anaerobic); conditions: Propionibacterium acnes A21953, GAM agar medium, inoculum 10^7-10^8
[9] = tested on: Bacteroides fragilis A22053; test: MIC, serial two-fold dilution method (anaerobic); conditions: Bacteroides fragilis A22053, GAM agar medium, inoculum 10^7-10^8
[10] = tested on: Bacillus subtilis ATCC 6633; test: MIC, serial two-fold dilution method (aerobic); conditions: Bacillus subtilis ATCC 6633, Mueller-Hinton agar, inoculum 10^4
[11] = tested on: Staphylococcus aureus Smith; test: MIC, serial two-fold dilution method (aerobic); conditions: Staphylococcus aureus Smith, Mueller-Hinton agar, inoculum 10^4
[12] = tested on: Staphylococcus aureus A20239; test: MIC, serial two-fold dilution method (aerobic); conditions: Staphylococcus aureus A20239, Mueller-Hinton agar, inoculum 10^4
[13] = tested on: Klebsiella pneumoniae D-11; test: MIC, serial two-fold dilution method (aerobic); conditions: Klebsiella pneumoniae D-11, Mueller-Hinton agar, inoculum 10^4
[14] = tested on: Bacteroides fragilis CUH-9; test: MIC, serial two-fold dilution method (anaerobic); conditions: Bacteroides fragilis CUH-9, GAM agar medium, inoculum 10^7-10^8
[15] = tested on: Staphylococcus aureus A22421; test: MIC, serial two-fold dilution method (aerobic); conditions: Staphylococcus aureus A22421, Mueller-Hinton agar, inoculum 10^4
[16] = tested on: Bacteroides ovatus A22400; test: MIC, serial two-fold dilution method (anaerobic); conditions: Bacteroides ovatus A22400, GAM agar medium, inoculum 10^7-10^8
[17] = tested on: Staphylococcus aureus BX-1633; test: MIC, serial two-fold dilution method (aerobic); conditions: Staphylococcus aureus BX-1633, Mueller-Hinton agar, inoculum 10^4
[18] = tested on: Peptococcus magnas A21676; test: MIC, serial two-fold dilution method (anaerobic); conditions: Peptococcus magnas A21676, GAM agar medium, inoculum 10^7-10^8
Sarcina lutea PCI-1001 = test: MIC, serial two-fold dilution method (aerobic); conditions: Sarcina lutea PCI-1001, Mueller-Hinton agar, inoculum 10^4
[19] = tested on: Fusobacterium nucleatum A21906; test: MIC, serial two-fold dilution method (anaerobic); conditions: Fusobacterium nucleatum A21906, GAM agar medium, inoculum 10^7-10^8
[20] = tested on: Clostridium ramosum A21970; test: MIC, serial two-fold dilution method (anaerobic); conditions: Clostridium ramosum A21970, GAM agar medium, inoculum 10^7-10^8
[21] = tested on: Staphylococcus aureus A9748; test: MIC, serial two-fold dilution method (aerobic); conditions: Staphylococcus aureus A9748, Mueller-Hinton agar, inoculum 10^4
[22] = tested on: Staphylococcus aureus A9856; test: MIC, serial two-fold dilution method (aerobic); conditions: Staphylococcus aureus A9856, Mueller-Hinton agar, inoculum 10^4
[23] = tested on: Bacteroides fragilis A21900; test: MIC, serial two-fold dilution method (anaerobic); conditions: Bacteroides fragilis A21900, GAM agar medium, inoculum 10^7-10^8
[24] = tested on: Neisseria meningitidis A20048; test: MIC, serial two-fold dilution method (aerobic); conditions: Neisseria meningitidis A20048; GC medium; inoculum 10^6 CFU/ml
[25] = tested on: Streptococcus pyogenes Dick; test: MIC, serial two-fold dilution method (aerobic); conditions: Streptococcus pyogenes Dick; GC medium; inoculum 10^6 CFU/ml
[26] = tested on: Streptococcus pyogenes A9604; test: MIC, serial two-fold dilution method (aerobic); conditions: Streptococcus pyogenes A9604; GC medium; inoculum 10^6 CFU/ml
[27] = read-out: minimum inhibitory concentration (MIC)

SMILES: O=C(N[C@H](CO)[C@H](O)c1ccc([N+](=O)[O-])cc1)C(Cl)Cl [Chloramphenicol]
- MIC ([1]; Bacillus anthracis, IID115, read-out: minimum inhibitory concentration (MIC)): 3.1 µg/mL (≈ 9.59 µM)
- MIC [2, 27]: 3.1 µg/mL (≈ 9.59 µM)
- MIC (Proteus vulgaris A9436; [27]): 3.1 µg/mL (≈ 9.59 µM)
- MIC ([3]; D113, read-out: minimum inhibitory concentration (MIC)): > 100 µg/mL
- Sensitivity S. aureus 209P (S. aureus 209P): S
- MIC [4, 27]: 1.6 µg/mL (≈ 4.95 µM)
- MIC ([5]; Clostridium perfringens, A9635, read-out: minimum inhibitory concentration (MIC)): 3.1 µg/mL (≈ 9.59 µM)
- MIC [6, 27]: 3.1 µg/mL (≈ 9.59 µM)
- MIC ([7]; CUH24, read-out: minimum inhibitory concentration (MIC)): 1.6 µg/mL (≈ 4.95 µM)
- MIC ([8]; Cutibacterium acnes, read-out: minimum inhibitory concentration (MIC)): 1.6 µg/mL (≈ 4.95 µM)
- MIC [9, 27]: 3.1 µg/mL (≈ 9.59 µM)
- MIC ([10]; ATCC6633, read-out: minimum inhibitory concentration (MIC)): 3.1 µg/mL (≈ 9.59 µM)
- MIC [11, 27]: 3.1 µg/mL (≈ 9.59 µM)
- MIC [12, 27]: 6.3 µg/mL (≈ 19.5 µM)
- MIC ([13]; D11, read-out: minimum inhibitory concentration (MIC)): 1.6 µg/mL (≈ 4.95 µM)
- MIC ([14]; CUH9, read-out: minimum inhibitory concentration (MIC)): 1.6 µg/mL (≈ 4.95 µM)
- MIC [15, 27]: 6.3 µg/mL (≈ 19.5 µM)
- MIC [16, 27]: 1.6 µg/mL (≈ 4.95 µM)
- MIC ([17]; BX1633, read-out: minimum inhibitory concentration (MIC)): 6.3 µg/mL (≈ 19.5 µM)
- MIC [18, 27]: 1.6 µg/mL (≈ 4.95 µM)
- MIC (Sarcina lutea PCI-1001; Micrococcus luteus, PCI1001, read-out: minimum inhibitory concentration (MIC)): 1.6 µg/mL (≈ 4.95 µM)
- MIC [19, 27]: 6.3 µg/mL (≈ 19.5 µM)
- MIC ([20]; Thomasclavelia ramosa, read-out: minimum inhibitory concentration (MIC)): 6.3 µg/mL (≈ 19.5 µM)
- MIC [21, 27]: 6.3 µg/mL (≈ 19.5 µM)
- MIC [22, 27]: 3.1 µg/mL (≈ 9.59 µM)
- MIC [23, 27]: 3.1 µg/mL (≈ 9.59 µM)

SMILES: CCCCCCCCCCCC1CC(=O)N2CCCC2C(=O)NC(CO)C(=O)N2CCCC2C(=O)NC(CCCNC(=N)N)C(=O)NC(C(O)C(=O)O)C(=O)NC(CO)C(=O)N2CCC(O)C2C(=O)NC(C(O)C(=O)O)C(=O)O1 (stereo not drawn) [Bu-2517] (PSPR[ξAsp(3ξ-OH)]S[X1][ξAsp(3ξ-OH)]; linker N-C via X2; configuration not given here)
- minimum inhibitory concentration (MIC) ([1]; Bacillus anthracis IID-115, Mueller-Hinton agar, inoculum 10^4): 0.8 µg/mL (≈ 0.71 µM)
- minimum inhibitory concentration (MIC) [2]: 1.6 µg/mL (≈ 1.42 µM)
- minimum inhibitory concentration (MIC) (Proteus vulgaris A9436): > 100 µg/mL
- minimum inhibitory concentration (MIC) [3]: > 100 µg/mL
- minimum inhibitory concentration (MIC) [4]: 0.8 µg/mL (≈ 0.71 µM)
- minimum inhibitory concentration (MIC) ([5]; Clostridium perfringens A9635, GAM agar medium, inoculum 10^7-10^8): 1.6 µg/mL (≈ 1.42 µM)
- minimum inhibitory concentration (MIC) [6]: > 100 µg/mL
- minimum inhibitory concentration (MIC) [7]: > 100 µg/mL
- minimum inhibitory concentration (MIC) [24]: > 100 µg/mL
- minimum inhibitory concentration (MIC) [8]: 6.3 µg/mL (≈ 5.59 µM)
- minimum inhibitory concentration (MIC) [9]: > 100 µg/mL
- minimum inhibitory concentration (MIC) [10]: 0.8 µg/mL (≈ 0.71 µM)
- minimum inhibitory concentration (MIC) [11]: 1.6 µg/mL (≈ 1.42 µM)
- minimum inhibitory concentration (MIC) [12]: 1.6 µg/mL (≈ 1.42 µM)
- minimum inhibitory concentration (MIC) [13]: > 100 µg/mL
- minimum inhibitory concentration (MIC) [14]: 100 µg/mL (≈ 88.8 µM)
- minimum inhibitory concentration (MIC) [15]: 0.8 µg/mL (≈ 0.71 µM)
- minimum inhibitory concentration (MIC) [16]: > 100 µg/mL
- minimum inhibitory concentration (MIC) [17]: 1.6 µg/mL (≈ 1.42 µM)
- minimum inhibitory concentration (MIC) [18]: 1.6 µg/mL (≈ 1.42 µM)
- minimum inhibitory concentration (MIC) (Sarcina lutea PCI-1001): < 0.05 µg/mL
- minimum inhibitory concentration (MIC) [19]: 12.5 µg/mL (≈ 11.1 µM)
- minimum inhibitory concentration (MIC) [20]: 1.6 µg/mL (≈ 1.42 µM)
- minimum inhibitory concentration (MIC) [25]: 1.6 µg/mL (≈ 1.42 µM)
- minimum inhibitory concentration (MIC) [21]: 1.6 µg/mL (≈ 1.42 µM)
- minimum inhibitory concentration (MIC) [22]: 0.8 µg/mL (≈ 0.71 µM)
- minimum inhibitory concentration (MIC) [26]: 1.6 µg/mL (≈ 1.42 µM)
- minimum inhibitory concentration (MIC) [23]: 6.3 µg/mL (≈ 5.59 µM)
